Some test systems named below: HT29 colon; KM12 colon; LOX IMVI melanoma; M14 melanoma; MALME-3M melanoma; NCI-H23 lung; SK-MEL-2 melanoma; SNB-19 CNS; U251 CNS; UACC-62 melanoma.
Common to all, as to test: growth of human tumour cells (NCI), 48 h

Molecules are shown by their SMILES.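 Assay format: 96-well plates, 48-hour exposure. At the TGI there is no net growth.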 Some results are limits rather than exact numbers.

For the compound `O=C(CNc1ccccn1)Nn1cnc2ccc(S(=O)(=O)Nc3ccccn3)cc2c1=O`, the TGI in the assay on HT29 colon, with KM12 colon, in the assay with LOX IMVI melanoma, in the assay with M14 melanoma, in the assay on MALME-3M melanoma and with NCI-H23 lung was above 100 µM each time. Further, the TGI with SK-MEL-2 melanoma, in the assay with SNB-19 CNS, in the assay with U251 CNS and in the assay on UACC-62 melanoma was above 100 µM throughout.
With `O=c1[nH]/c(=C/c2ccc3c(c2)OCO3)c(=O)[nH]/c1=C/c1ccc2c(c1)OCO2`, the TGI in the assay on HT29 colon, in the assay with KM12 colon, with LOX IMVI melanoma, with M14 melanoma, in the assay with MALME-3M melanoma and in the assay with NCI-H23 lung was above 10 µM each time. The TGI in the assay on SK-MEL-2 melanoma, with SNB-19 CNS, with U251 CNS and with UACC-62 melanoma was above 10 µM in each case.
Turning to `CC(C)OC(=O)c1ccc(NCc2cc(O)ccc2O)cc1`, the TGI in the assay on HT29 colon was 31.5 µM; in the assay on KM12 colon it was 12.5 µM; with LOX IMVI melanoma, 15.9 µM; in the assay with M14 melanoma it was 22.4 µM; in the assay on MALME-3M melanoma, 5.2 µM; in the assay with NCI-H23 lung, 18 µM. In addition, the TGI is 27.8 µM in the assay with SK-MEL-2 melanoma, above 68.7 µM with SNB-19 CNS, 17.1 µM in the assay with U251 CNS and 30.9 µM with UACC-62 melanoma.
As to `O=c1[nH]nc(Cc2ccccc2)n1/N=C/c1cccs1`, the TGI in the assay with HT29 colon, with KM12 colon, in the assay on LOX IMVI melanoma, with M14 melanoma, with MALME-3M melanoma and with NCI-H23 lung was above 100 µM each time. For the same compound, the TGI in the assay on SK-MEL-2 melanoma, with SNB-19 CNS, in the assay with U251 CNS and with UACC-62 melanoma was above 100 µM each time.
Take `Cc1cccc(C2ON=C(c3ccccc3)N2C23CC4CC(CC(C4)C2)C3)c1` (stereo unspecified): the TGI with HT29 colon, in the assay with KM12 colon, with LOX IMVI melanoma, in the assay on M14 melanoma, in the assay with MALME-3M melanoma and with NCI-H23 lung was above 10 µM each time. Also, the TGI in the assay on SK-MEL-2 melanoma, in the assay on SNB-19 CNS, in the assay on U251 CNS and in the assay with UACC-62 melanoma was above 10 µM in each case.
As for `CC(=O)OI1NC(=O)c2ccccc21`, the TGI in the assay with HT29 colon, in the assay on KM12 colon, in the assay on LOX IMVI melanoma, in the assay with M14 melanoma, in the assay with MALME-3M melanoma and in the assay with NCI-H23 lung was above 100 µM each time. In addition, the TGI with SK-MEL-2 melanoma, in the assay on SNB-19 CNS, in the assay with U251 CNS and in the assay with UACC-62 melanoma was above 100 µM each time.
With `Clc1ccc(Cl)c(N=Nc2cc3c4c(c2)CCN4CCC3)c1`, the TGI with HT29 colon, in the assay on KM12 colon, with LOX IMVI melanoma, in the assay on M14 melanoma, with MALME-3M melanoma and in the assay with NCI-H23 lung was above 10 µM each time. Further, the TGI with SK-MEL-2 melanoma, with SNB-19 CNS, in the assay with U251 CNS and with UACC-62 melanoma was above 10 µM each time.
In the case of `Brc1ccc(C2C3CSc4ccccc4C3=NN2c2ccccc2)cc1` (stereo unspecified), the TGI in the assay with HT29 colon, in the assay on KM12 colon, in the assay on LOX IMVI melanoma, in the assay on M14 melanoma, with MALME-3M melanoma and in the assay with NCI-H23 lung was above 100 µM throughout. Moreover, the TGI in the assay on SK-MEL-2 melanoma, with SNB-19 CNS, with U251 CNS and with UACC-62 melanoma was above 100 µM each time.
Take `CC1=CC2C(C=C1)S(=O)(=O)N1CC21c1ccccc1` (stereo unspecified): the TGI in the assay with HT29 colon, in the assay with KM12 colon, in the assay on LOX IMVI melanoma, in the assay with M14 melanoma, in the assay on MALME-3M melanoma and with NCI-H23 lung was above 100 µM throughout. For the same compound, the TGI with SK-MEL-2 melanoma, in the assay with SNB-19 CNS, in the assay with U251 CNS and in the assay on UACC-62 melanoma was above 100 µM throughout.
Turning to `CC(C)N(C(=O)C12C3C4C1C1C2C3C41C#N)C(C)C` (stereo unspecified), the TGI is above 100 µM with HT29 colon; above 100 µM with KM12 colon; above 67.2 µM in the assay on LOX IMVI melanoma; above 100 µM in the assay with M14 melanoma; above 100 µM in the assay with MALME-3M melanoma; above 100 µM in the assay with NCI-H23 lung. For the same compound, the TGI in the assay with SK-MEL-2 melanoma, in the assay with SNB-19 CNS, in the assay on U251 CNS and in the assay with UACC-62 melanoma was above 100 µM in each case.
Take `C[C@]12C=CC(=O)C=C1CC[C@@H]1[C@@H]2CC[C@@]2(C)[C@H]1CC[C@]2(O)C(N)=O`: the TGI in the assay on HT29 colon, in the assay with KM12 colon, in the assay with LOX IMVI melanoma, with M14 melanoma, in the assay on MALME-3M melanoma and in the assay on NCI-H23 lung was above 100 µM throughout. Moreover, the TGI with SK-MEL-2 melanoma, with SNB-19 CNS, in the assay on U251 CNS and in the assay with UACC-62 melanoma was above 100 µM in each case.
As for `CC1(C)CCN2C(=O)C34CCCC3CC21S4` (stereo unspecified), the TGI in the assay with HT29 colon, in the assay on KM12 colon, with LOX IMVI melanoma, in the assay on M14 melanoma, in the assay with MALME-3M melanoma and in the assay on NCI-H23 lung was above 100 µM in each case. In addition, the TGI with SK-MEL-2 melanoma, with SNB-19 CNS, in the assay on U251 CNS and in the assay with UACC-62 melanoma was above 100 µM in each case.
In the case of `O=C1Oc2ccccc2C1C/C(=N\Nc1ccccc1)c1ccccc1O` (stereo unspecified), the TGI was 78.5 µM with HT29 colon; 45.8 µM in the assay on KM12 colon; above 100 µM with LOX IMVI melanoma; above 100 µM in the assay with M14 melanoma; above 100 µM in the assay with MALME-3M melanoma; 74 µM in the assay on NCI-H23 lung. For the same compound, the TGI in the assay on SK-MEL-2 melanoma, with SNB-19 CNS, in the assay with U251 CNS and in the assay on UACC-62 melanoma was above 100 µM throughout.
As for `CC(C)(C)N=CN1C=Cc2nc3ccccc3cc2C1`, the TGI in the assay on HT29 colon is above 100 µM; in the assay on KM12 colon, above 100 µM; in the assay with LOX IMVI melanoma, 73.8 µM; in the assay on M14 melanoma it was above 100 µM; in the assay on MALME-3M melanoma it was above 100 µM; in the assay with NCI-H23 lung it was above 100 µM. Besides, the TGI in the assay on SK-MEL-2 melanoma, with SNB-19 CNS, with U251 CNS and in the assay with UACC-62 melanoma was above 100 µM in each case.
Take `CCOC(=O)C(NC(=O)OCc1ccccc1)C(=O)O` (stereo unspecified): the TGI in the assay on HT29 colon, in the assay on KM12 colon, in the assay with LOX IMVI melanoma, in the assay with M14 melanoma, in the assay with MALME-3M melanoma and with NCI-H23 lung was above 100 µM in each case. Further, the TGI in the assay on SK-MEL-2 melanoma, in the assay on SNB-19 CNS, in the assay on U251 CNS and with UACC-62 melanoma was above 100 µM throughout.
For the compound `CC1(C)C2CCC3CC(CCC#N)CCC3C21C#N` (stereo unspecified), the TGI with HT29 colon, with KM12 colon, in the assay with LOX IMVI melanoma, with M14 melanoma, in the assay with MALME-3M melanoma and with NCI-H23 lung was above 100 µM in each case. Also, the TGI with SK-MEL-2 melanoma, in the assay with SNB-19 CNS, in the assay on U251 CNS and in the assay with UACC-62 melanoma was above 100 µM each time.
As to `CS(=O)(=O)N1CC(CCl)c2ccc(NO)cc21` (stereo unspecified), the TGI was found to be 29.4 µM in the assay on HT29 colon; 36.2 µM in the assay on KM12 colon; 29.4 µM with LOX IMVI melanoma; 34.3 µM in the assay on M14 melanoma; 37.7 µM in the assay on MALME-3M melanoma; 18 µM with NCI-H23 lung. The TGI with SK-MEL-2 melanoma was 41.3 µM; with SNB-19 CNS, above 86.4 µM; in the assay with U251 CNS it was 32.8 µM; with UACC-62 melanoma, 26.5 µM.
On to `O=C1CN(c2ccccc2)Cc2nc(Cl)ccc2N1`, for which the TGI in the assay with HT29 colon, in the assay with KM12 colon, in the assay with LOX IMVI melanoma, in the assay with M14 melanoma, in the assay with MALME-3M melanoma and with SK-MEL-2 melanoma was above 100 µM throughout. Moreover, the TGI in the assay on SNB-19 CNS, in the assay with U251 CNS and in the assay on UACC-62 melanoma was above 100 µM in each case.
`CCCCOCCOCCOC1=CC(=O)c2c(O)ccc(O)c2C1=O`: the TGI in the assay with KM12 colon is 3.3 µM; in the assay with LOX IMVI melanoma, 3.39 µM; in the assay on M14 melanoma, 2.85 µM; in the assay with MALME-3M melanoma it was 1.49 µM; in the assay on NCI-H23 lung, 3.32 µM; in the assay with SK-MEL-2 melanoma, 3.52 µM. The results for the TGI in the assay on SNB-19 CNS, in the assay on U251 CNS and in the assay on UACC-62 melanoma were 3.19 µM, 3.29 µM and 3.64 µM, respectively.
As to `Nc1nc2c(N)cc(C(F)(F)F)cc2nc1-c1ccccc1`, the TGI with KM12 colon, in the assay with LOX IMVI melanoma, in the assay with M14 melanoma, in the assay with MALME-3M melanoma, in the assay with NCI-H23 lung and with SK-MEL-2 melanoma was above 100 µM each time. The TGI in the assay on SNB-19 CNS, with U251 CNS and in the assay on UACC-62 melanoma was above 100 µM each time.
Consider `N#CC(NNC(=O)Cc1ccccc1)c1cccc(O)c1` (stereo unspecified), for which the TGI with HT29 colon, in the assay on KM12 colon, in the assay with LOX IMVI melanoma, in the assay with M14 melanoma, in the assay with MALME-3M melanoma and in the assay on NCI-H23 lung was above 100 µM throughout. Also, the TGI in the assay with SK-MEL-2 melanoma, in the assay on U251 CNS and with UACC-62 melanoma was above 100 µM throughout.

The values are drawn from PubChem BioAssay (NCI).
